pIC50: −log10 of the molar value. Read-outs that look alike come from different tables or passages of the source.
How the values were obtained:
[1] = test system: MDA-MB-231 human breast cancer cells; test: Proliferation assay MDA-MB-231 (crystal violet); format: cell-based; conditions: MDA-MB-231 cells, 4 days, median, read-out: Prolif-MDA MB231 IC50 - [mol/l] (median)
Experimental: 4. Proliferation assay: MDA-MB-231, CAL-120
Human tumour cells were originally obtained from the American Type Culture Collection (ATCC), or from the Deutsche Sammlung von Mikroorganismen and Zellkulturen (DSMZ, German Collection of Microorganisms and Cell Cultures). Cultivated tumour cells (CAL-120, human breast adenocarcinoma cells, DSMZ ACC-459; MDA-M B-231, human breast cancer cells, ATCC HTB-26) were plated at a density of 4,000 cells/well in a 96-well multititer plate in 200 microL of their respective growth medium supplemented 10% fetal calf serum. After 24 hours, the cells of one plate (zero-point plate) were stained with crystal violet (see below), while the medium of the other plates was supplemented with the test substances in various concentrations (0 micromol/L, as well as in the range of 0.01-10 micromol/L; the final concentration of the solvent dimethyl sulfoxide was adjusted to 0.1%) using a Tecan HP D300 Digital Dispenser. The cells were incubated for 4 days in the presence of test substances. Cell proliferation was determined by staining the cells with crystal violet: the cells were fixed by adding 20 microL/measuring point of an 11% glutaric aldehyde solution for 15 minutes at room temperature. After three washing cycles of the fixed cells with water, the plates were dried at room temperature. The cells were stained by adding 100 microL/measuring point of a 0.1% crystal violet solution (pH 3.0). After three washing cycles of the stained cells with water, the plates were dried at room temperature. The dye was dissolved by adding 100 microL/measuring point of a 10% acetic acid solution. The extinction was determined by photometry at a wavelength of 595 nm. The change of cell number, in percent, was calculated by normalization of the measured values to the extinction values of the zero-point plate(=0%) and the extinction of the untreated (0 μM) cells(=100%). The IC50 values (inhibitory concentration at 50% of maximal effect) were determined by means of a 4 parameter fit.

CDK12/CyclinK = target: T1, CDK12/CyclinK (Homo sapiens, UniProt Q9NYV4); test: CDK12/CycK high ATP kinase assay (TR-FRET); format: biochemical; conditions: 2 mM ATP (high ATP); median; read-out: CDK12/CyclinK, 2 mM ATP (high ATP), IC50 - [mol/l] (median)
T1 construct: His-CDK12 (aa Q696-S1082); made in house; host or cells: Hi-5 insect cells (baculovirus co-infection with CycK and yeast CAK1)
T1 sequence (Q9NYV4 with tags, fused parts or gaps): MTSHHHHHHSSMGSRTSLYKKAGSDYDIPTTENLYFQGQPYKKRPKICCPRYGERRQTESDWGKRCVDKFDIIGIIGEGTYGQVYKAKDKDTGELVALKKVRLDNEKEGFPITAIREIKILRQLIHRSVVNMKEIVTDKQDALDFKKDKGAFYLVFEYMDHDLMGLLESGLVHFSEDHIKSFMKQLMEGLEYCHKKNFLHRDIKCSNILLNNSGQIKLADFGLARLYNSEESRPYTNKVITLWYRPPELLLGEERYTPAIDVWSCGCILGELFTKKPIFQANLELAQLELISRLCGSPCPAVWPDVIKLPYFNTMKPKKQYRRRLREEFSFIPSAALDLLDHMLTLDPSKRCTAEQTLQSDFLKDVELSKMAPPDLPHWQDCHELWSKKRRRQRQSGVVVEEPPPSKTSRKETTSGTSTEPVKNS
T1 sequence (O75909 with tags, fused parts or gaps partner limits assumed): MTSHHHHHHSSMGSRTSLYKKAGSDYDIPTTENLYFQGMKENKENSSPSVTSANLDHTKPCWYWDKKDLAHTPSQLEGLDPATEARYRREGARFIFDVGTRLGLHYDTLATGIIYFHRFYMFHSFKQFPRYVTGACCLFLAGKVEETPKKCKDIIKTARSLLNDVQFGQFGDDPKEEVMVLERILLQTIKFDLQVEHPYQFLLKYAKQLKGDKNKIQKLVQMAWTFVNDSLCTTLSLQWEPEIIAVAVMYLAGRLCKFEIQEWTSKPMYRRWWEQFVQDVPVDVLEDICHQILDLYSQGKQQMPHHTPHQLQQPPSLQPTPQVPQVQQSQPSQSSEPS
How it was run: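 Human His-tagged CDK12/CycK (about 0.75 nM) preincubated with compound 15 min, then reacted 60 min at 22 °C with 2 mM ATP and 1 µM biotinylated peptide in HEPES pH 7.5 buffer. Phospho-Ser62 c-Myc epitope detected by TR-FRET (665/620 nm ratio); data normalised to no-inhibitor and no-enzyme controls.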

In the case of CC(CCN(C)C)n1nc(NCc2nc3ccccc3[nH]2)c2ncc(C3CC3)nc21 (racemic) [Example 62, (±)-N-[(1H-benzimidazol-2-yl)methyl]-6-cyclopropyl-1-[4-(dimethylamino)butan-2-yl]-1H-pyrazolo[3,4-b]pyrazin-3-amine], the pIC50 ([1]; Homo sapiens, MDA-MB-231, 96 h) was 6.06 and the pIC50 (CDK12/CyclinK) was less than 4.70.
CC(C)(O)CCn1nc(NCc2nc3ccccc3[nH]2)c2ncc(C3CC3)nc21 [Example 76, 4-(3-{[(1H-benzimidazol-2-yl)methyl]amino}-6-cyclopropyl-1H-pyrazolo[3,4-b]pyrazin-1-yl)-2-methylbutan-2-ol] gave a pIC50 ([1]; Homo sapiens, MDA-MB-231, 96 h) of 6.91 and a pIC50 (CDK12/CyclinK) of less than 4.70.
With CN1CCC(n2nc(NCc3nc4c(Cl)c(F)ccc4[nH]3)c3ncc(C4CC4)nc32)CC1 [Example 31, N-[(4-chloro-5-fluoro-1H-benzimidazol-2-yl)methyl]-6-cyclopropyl-1-(1-methylpiperidin-4-yl)-1H-pyrazolo[3,4-b]pyrazin-3-amine] the pIC50 ([1]; Homo sapiens, MDA-MB-231, 96 h) was 7.74 and the pIC50 (CDK12/CyclinK) was less than 4.70.
Compound COC(C)(C)CCn1nc(NCc2nc3ccccc3[nH]2)c2ncc(C3CC3)nc21 [Example 67, N-[(1H-benzimidazol-2-yl)methyl]-6-cyclopropyl-1-(3-methoxy-3-methylbutyl)-1H-pyrazolo[3,4-b]pyrazin-3-amine] has a pIC50 ([1]; Homo sapiens, MDA-MB-231, 96 h) of 6.57 and a pIC50 (CDK12/CyclinK) of less than 4.70.
Compound OC1(Cn2nc(NCc3nc4ccccc4[nH]3)c3ncc(C4CC4)nc32)CCC1 [Example 72, 1-[(3-{[(1H-benzimidazol-2-yl)methyl]amino}-6-cyclopropyl-1H-pyrazolo[3,4-b]pyrazin-1-yl)methyl]cyclobutan-1-ol] has a pIC50 ([1]; Homo sapiens, MDA-MB-231, 96 h) of 6.96 and a pIC50 (CDK12/CyclinK) of less than 5.00.
COc1cccc2[nH]c(CNc3nn(C4CCOCC4)c4nc(C5CC5)cnc34)nc12 [Example 24, 6-cyclopropyl-N-[(4-methoxy-1H-benzimidazol-2-yl)methyl]-1-(oxan-4-yl)-1H-pyrazolo[3,4-b]pyrazin-3-amine] gave a pIC50 ([1]; Homo sapiens, MDA-MB-231, 96 h) of 7.91 and a pIC50 (CDK12/CyclinK) of 4.74.
CN1CCC(n2nc(NCc3nc4cc(Cl)c(Cl)cc4[nH]3)c3ncc(C4CC4)nc32)CC1 [Example 19, 6-cyclopropyl-N-[(5,6-dichloro-1H-benzimidazol-2-yl)methyl]-1-(1-methylpiperidin-4-yl)-1H-pyrazolo[3,4-b]pyrazin-3-amine] showed a pIC50 ([1]; Homo sapiens, MDA-MB-231, 96 h) of 8.32 and a pIC50 (CDK12/CyclinK) of less than 4.70.
Compound CN1CCC(n2nc(NCc3nc4c(C(F)(F)F)cccc4[nH]3)c3ncc(C4CC4)nc32)CC1 [Example 7, 6-cyclopropyl-1-(1-methylpiperidin-4-yl)-N-{[4-(trifluoromethyl)-1H-benzimidazol-2-yl]methyl}-1H-pyrazolo[3,4-b]pyrazin-3-amine] has a pIC50 ([1]; Homo sapiens, MDA-MB-231, 96 h) of 7.41 and a pIC50 (CDK12/CyclinK) of less than 4.70.
For COCCn1nc(NCc2nc3ccccc3[nH]2)c2ncc(C3CC3)nc21 [Example 65, N-[(1H-benzimidazol-2-yl)methyl]-6-cyclopropyl-1-(2-methoxyethyl)-1H-pyrazolo[3,4-b]pyrazin-3-amine], the pIC50 ([1]; Homo sapiens, MDA-MB-231, 96 h) was 6.36 and the pIC50 (CDK12/CyclinK) was less than 4.70.
COCCCn1nc(NCc2nc3ccccc3[nH]2)c2ncc(C3CC3)nc21 [Example 61, N-[(1H-benzimidazol-2-yl)methyl]-6-cyclopropyl-1-(3-methoxypropyl)-1H-pyrazolo[3,4-b]pyrazin-3-amine] gave a pIC50 ([1]; Homo sapiens, MDA-MB-231, 96 h) of 6.47 and a pIC50 (CDK12/CyclinK) of less than 4.70.
Fc1ccc2[nH]c(CNc3nn(C4CCOCC4)c4nc(C5CC5)cnc34)nc2c1F [Example 32, 6-cyclopropyl-N-[(4,5-difluoro-1H-benzimidazol-2-yl)methyl]-1-(oxan-4-yl)-1H-pyrazolo[3,4-b]pyrazin-3-amine] was tested, and the pIC50 ([1]; Homo sapiens, MDA-MB-231, 96 h) was 8.26 and the pIC50 (CDK12/CyclinK) was 4.86.
Work on Fc1ccc2[nH]c(CNc3nn(C4CCOCC4)c4nc(C5CC5)cnc34)nc2c1 [Example 53, 6-cyclopropyl-N-[(5-fluoro-1H-benzimidazol-2-yl)methyl]-1-(oxan-4-yl)-1H-pyrazolo[3,4-b]pyrazin-3-amine] yielded a pIC50 ([1]; Homo sapiens, MDA-MB-231, 96 h) of 7.63 and a pIC50 (CDK12/CyclinK) of less than 5.00.
In the case of OCCCn1nc(NCc2nc3ccccc3[nH]2)c2ncc(C3CC3)nc21 [Example 60, 3-(3-{[(1H-benzimidazol-2-yl)methyl]amino}-6-cyclopropyl-1H-pyrazolo[3,4-b]pyrazin-1-yl)propan-1-ol], the pIC50 ([1]; Homo sapiens, MDA-MB-231, 96 h) was 6.63 and the pIC50 (CDK12/CyclinK) was less than 4.70.
Work on OC[C@H]1C[C@H](n2nc(NCc3nc4ccccc4[nH]3)c3ncc(C4CC4)nc32)C1 [Example 46, [trans-3-(3-{[(1H-benzimidazol-2-yl)methyl]amino}-6-cyclopropyl-1H-pyrazolo[3,4-b]pyrazin-1-yl)cyclobutyl]methanol] yielded a pIC50 ([1]; Homo sapiens, MDA-MB-231, 96 h) of 7.33 and a pIC50 (CDK12/CyclinK) of less than 4.70.
For CN1CCC(n2nc(NCc3nc4ccccc4[nH]3)c3ncc(C4CC4)nc32)C1 (single isomer, unassigned) [Example 78, (+) or (−)-N-[(1H-benzimidazol-2-yl)methyl]-6-cyclopropyl-1-(1-methylpyrrolidin-3-yl)-1H-pyrazolo[3,4-b]pyrazin-3-amine], the pIC50 [1] was 7.46 and the pIC50 (CDK12/CyclinK) was less than 4.70.
c1ccc2[nH]c(CNc3nn(CC4CCC4)c4nc(C5CC5)cnc34)nc2c1 [Example 75, N-[(1H-benzimidazol-2-yl)methyl]-1-(cyclobutylmethyl)-6-cyclopropyl-1H-pyrazolo[3,4-b]pyrazin-3-amine] gave a pIC50 ([1]; Homo sapiens, MDA-MB-231, 96 h) of 6.42 and a pIC50 (CDK12/CyclinK) of less than 4.70.
With O=CO.c1ccc(-n2nc(NCc3nc4ccccc4[nH]3)c3ncc(C4CC4)nc32)cc1 [Example 13, formic acid—N-[(1H-benzimidazol-2-yl)methyl]-6-cyclopropyl-1-phenyl-1H-pyrazolo[3,4-b]pyrazin-3-amine (1/1)] the pIC50 ([1]; Homo sapiens, MDA-MB-231, 96 h) was 6.77 and the pIC50 (CDK12/CyclinK) was less than 4.70.
In the case of CC1COCCC1n1nc(NCc2nc3ccccc3[nH]2)c2ncc(C3CC3)nc21 (racemic) [Example 42, (±)-cis/trans-N-[(1H-benzimidazol-2-yl)methyl]-6-cyclopropyl-1-(3-methyloxan-4-yl)-1H-pyrazolo[3,4-b]pyrazin-3-amine], the pIC50 ([1]; Homo sapiens, MDA-MB-231, 96 h) was 6.83 and the pIC50 (CDK12/CyclinK) was less than 4.70.
For CN1CCC(n2nc(NCc3nc4cc(F)ccc4[nH]3)c3ncc(C4CC4)nc32)CC1 [Example 4, 6-cyclopropyl-N-[(5-fluoro-1H-benzimidazol-2-yl)methyl]-1-(1-methylpiperidin-4-yl)-1H-pyrazolo[3,4-b]pyrazin-3-amine], the pIC50 ([1]; Homo sapiens, MDA-MB-231, 96 h) was 7.29 and the pIC50 (CDK12/CyclinK) was less than 4.70.
Cc1ccc2[nH]c(CNc3nn(C4CCN(C)CC4)c4nc(C5CC5)cnc34)nc2c1C [Example 28, 6-cyclopropyl-N-[(4,5-dimethyl-1H-benzimidazol-2-yl)methyl]-1-(1-methylpiperidin-4-yl)-1H-pyrazolo[3,4-b]pyrazin-3-amine] was tested, and the pIC50 ([1]; Homo sapiens, MDA-MB-231, 96 h) was 7.70 and the pIC50 (CDK12/CyclinK) was less than 4.70.
For CN1CCC(n2nc(NCc3nc4ccccc4[nH]3)c3ncc(C4CC4)nc32)C1 (single isomer, unassigned) [Example 79, (−) or (+)-N-[(1H-benzimidazol-2-yl)methyl]-6-cyclopropyl-1-(1-methylpyrrolidin-3-yl)-1H-pyrazolo[3,4-b]pyrazin-3-amine], the pIC50 [1] was 6.66 and the pIC50 (CDK12/CyclinK) was less than 4.70.
Work on CN1CCCC(n2nc(NCc3nc4ccccc4[nH]3)c3ncc(C4CC4)nc32)CC1 (single isomer, unassigned) [Example 37, (+) or (−)-N-[(1H-benzimidazol-2-yl)methyl]-6-cyclopropyl-1-[(4R*)-1-methylazepan-4-yl]-1H-pyrazolo[3,4-b]pyrazin-3-amine] yielded a pIC50 [1] of 7.82 and a pIC50 (CDK12/CyclinK) of less than 4.70.
With CC(CCN(C)C)n1nc(NCc2nc3ccccc3[nH]2)c2ncc(C3CC3)nc21 (single isomer, unassigned) [Example 64, (−) or(+)-N-[(1H-benzimidazol-2-yl)methyl]-6-cyclopropyl-1-[4-(dimethylamino)butan-2-yl]-1H-pyrazolo[3,4-b]pyrazin-3-amine] the pIC50 [1] was 6.27 and the pIC50 (CDK12/CyclinK) was less than 4.70.
O[C@H]1C[C@@H](n2nc(NCc3nc4ccccc4[nH]3)c3ncc(C4CC4)nc32)C1 [Example 40, cis-3-(3-{[(1H-benzimidazol-2-yl)methyl]amino}-6-cyclopropyl-1H-pyrazolo[3,4-b]pyrazin-1-yl)cyclobutan-1-ol] gave a pIC50 ([1]; Homo sapiens, MDA-MB-231, 96 h) of 7.08 and a pIC50 (CDK12/CyclinK) of less than 4.70.
CN1CCC(n2nc(NCc3nc4c(F)cccc4[nH]3)c3ncc(C4CC4)nc32)CC1 [Example 3, 6-cyclopropyl-N-[(4-fluoro-1H-benzimidazol-2-yl)methyl]-1-(1-methylpiperidin-4-yl)-1H-pyrazolo[3,4-b]pyrazin-3-amine] showed a pIC50 ([1]; Homo sapiens, MDA-MB-231, 96 h) of 8.43 and a pIC50 (CDK12/CyclinK) of no more than 4.94.

Source: patent publication US20230192700A1, “PYRAZOLOPYRAZINES ACTING ON CANCERS VIA INHIBITION OF CDK12” (Bayer Aktiengesellschaft, priority 2020, published 2023)
